Experimental data published in PMC12164071, “Lysine targeting covalent inhibitors of malarial kinase PfCLK3” (RSC Medicinal Chemistry, 2025).
Entries after “also recorded” stand apart in the source; their conditions may differ. Like-named read-outs stand apart in the source and are kept apart here.

Key:
[1] = test system: PfCLK3 kinase domain (amino acid residues 334–699); test: Intact protein LC-MS for covalent adduct formation; assay type: binding, Plasmodium falciparum; settings: for covalent adduct formation with PfCLK3 kinase domain: pH 7.4, 1:5 protein to compound ratio; for Relative Ratio, assignment holo (singly modified) / Relative Ratio, assignment apo: compound 4 with C-terminal His-tag construct
Procedure: All compounds were then evaluated for covalent binding with PfCLK3 kinase domain (amino acid residues 334–699) using intact protein LC-MS (Fig. 3). Compounds were incubated at pH 7.4 in a 1 : 5 protein to compound ratio and analysed for covalent adduct formation using ESI TOF. […] Compounds 8 and 9 yielded a fully modified species at 43 957 Da, which can be attributed to the mass of the apo protein + the mass of the pyridinium product adduct. A minor mass (20–25%) of 44 378 Da was also detected, consistent with a doubly modified PfCLK3 kinase domain. This implies that cross reactivity with non-catalytic lysine residues is possible using the ethynyl benzaldehyde functionality, although a minor product. […]
dialyzing the protein into a final buffer containing 20 mM HEPES pH 7.4, 150 mM NaCl, 1 […]
PfCLK3 kinase domain (residues 334–699 with a C-terminal TEV cleavage sequence and His6-tag) was cloned into pFastBac vector and expressed and purified from Sf21 insect cells.
Cells were infected using P2 BIICs at an MOI of 0.2 and left to express for 72 h. Harvested cells were lysed and centrifuged before purifying using IMAC and SEC in a final buffer containing 20 mM HEPES pH 7.4, 150 mM NaCl, 1 mM TCEP, and 1 mM MgCl2.
Protein Mass Spectrometry
For intact protein mass spectrometry, compounds were incubated with a 5-fold excess of compound in buffer containing 20 mM HEPES pH 7.4, 150 mM NaCl, 1 mM TCEP, and 1 mM MgCl 2. 5 μL of kinase domain (1 mg/mL) was added to 25 μL of buffer before 0.12 μL of compound in a 10 mM DMSO stock was added to start the incubation. Samples were incubated at room temperature for 4 hours before 10 μL alliquots were analysed by LC-MS.
Intact protein LC-MS experiments were performed on a Synapt G2 Q-ToF instrument equipped with electrospray ionisation (Waters Corp., Manchester, UK). LC separation was achieved using an Acquity UPLC equipped with a reverse phase C4 Aeris Widepore 50 × 2.1 mm HPLC column (Phenomenex, CA, USA) and a gradient of 5–95% acetonitrile (0.1% formic acid) over 10 minutes was employed. Data analysis was performed using MassLynx v4.1 and deconvolution was performed using MaxEnt. […]

recombinant PfCLK3 = recombinant PfCLK3 (Plasmodium falciparum, UniProt Q8IIL5); test: TR-FRET kinase assay at Km ATP; assay type: biochemical; settings: for IC50: 2 hour incubation, errors SD, N ≥ 3, * concentration response curve not complete; for kinase activity in words: Km ATP
Procedure: All compounds were then evaluated against recombinant PfCLK3 using a TR-FRET kinase assay (Fig. 5). […]
Time Resolved Förster Resonance Energy Transfer (TR-FRET) Assay
Tr-FRET technology was used to determine kinase activity and Km ATP before profiling compounds. An 11-point half-log serial dilution of each test compound was prepared in 100% DMSO at 100X final test concentration. The dilution series were dispensed onto assay plates with liquid handling machinery using positive displacement. The final DMSO concentration in the assay was 1%. To obtain IC 50 values, full length recombinant PfCLK3 was prepared in 1X assay buffer (50 mM Hepes, 10 mM MgCl2, 1 mM EGTA, 0.01% Tween20, 2 mM TCEP) at a 2X concentration and incubated with compounds for 15 minutes at room temperature before addition of ULight-labelled peptide substrate (MBP) with Km ATP (at 2X concentration). The reaction was centrifuged and incubated for 2 hr at 37 °C. To stop the reaction, 1X Lance detection buffer was added with 1 nM Eu-labelled anti-MBP and 10 mM EDTA, and the reaction was incubated in the dark for 2 hr at room temperature to allow detection to take place. Plate output was read on a Pherastar FSX and data analysed in Graphpad Prism to a 4-parameter curve fit. […]

[2] = test system: 3D7 Plasmodium falciparum parasites; test: Ex vivo P. falciparum (3D7) inhibition assay; assay type: cell-based
Procedure: Compounds 4, 5, 8 and 9 were then assessed against 3D7 Plasmodium falciparum parasites (Fig. 6). […]
P. falciparum (3D7) culture and synchronisation.
P. falciparum cultures were maintained in RPMI-1640 media (Invitrogen) supplemented with 0.2% sodium bicarbonate, 0.5% Albumax II, 2.0 mM L-glutamine (Sigma) and 10 mg/L gentamycin. For continuous culture, the parasites were maintained at 4% haematocrit in human erythrocytes from 0+ blood donors and between 0.5 - 3% parasitaemia in an incubator at 37 °C, 5% carbon dioxide (CO 2), 5% oxygen (O 2) and 90% nitrogen (N 2). To obtain highly synchronous ring stage parasites for assays, cultures were double synchronised using Percoll and Sorbitol synchronisation. First, highly segmented schizonts were enriched by centrifugation on a 70% Percoll (GE Healthcare) cushion gradient. The Schizont pellet was collected and washed twice before fresh erythrocytes were added to a final haematocrit of 4%, and incubated for about 1-2 hours shaking continuously to allow merozoites egress and re-invasion of new erythrocytes. Residual schizonts were then removed by a second Percoll purification followed by treating the ring pellet with sorbitol to generate highly synchronous 1-2 hours old ring-stage parasites.
Ex vivo P. Falciparum (3D7) inhibition assay.
To determine the IC 50 of the molecules in parasites (P. falciparum 3D7) ex vivo, the molecules were diluted 1 in 3 from a starting concentration of 100 μM for 12 dilution points in triplicate. 50 μL of freshly diluted drugs, at twice the required final concentrations were aliquoted into black 96-well plates. To the compound plates, 50 μL of parasites prepared at 8% haematocrit at a parasitaemia (0.3 - 0.5%) were added and mixed by pipetting up and down several times giving a final culture volume of 100 μL at the required compound concentration (top concentration of 100 μM) and 4% haematocrit. To the ‘no compound’ control, growth media was added and uninfected erythrocytes were included on the plate as blank. The outer wells were filled with media to reduce evaporation from the experimental wells and the plates incubated for 72 hours (±2 hours) to allow the parasites sufficient time to re-invade before they are collected and frozen. For cellular washout studies, compound media was exchanged for compound-free media after 6 hours, and the parasites incubated for a […]

[3] = Human cell viability assay (resazurin); settings: HepG2, 48 hours, errors SD, N ≥ 3
Procedure: Cytotoxicity was assessed in HepG2 cells to complement the selectivity evaluations (Fig. 7). […]
Human cell viability assay.
Mycoplasma tested HepG2 cells were cultured in Dulbecco’s Modified Eagle Medium
(DMEM) with 10% fetal bovine serum, 1% non-essential AA, 1% sodium pyruvate, 1% Pen-
strep and 100ug/mL Normocin. Cultures were incubated at 37 ℃, 5% CO2. Cells were
detached using 0.05% trypsin-EDTA. 500nL of drug compound dilutions, in triplicate, were
added to 384-well, black, clear bottom assay plates using a Mosquito liquid handling
machine. Assay plates, containing compound dilutions, were seeded at 5,000 cells/well and
incubated for 48 hours. 40uM final concentration resazurin, diluted in DPBS, was added to
the assay plates which were then incubated for 4 hours and analysed using a ClariostarTM
plate reader to measure fluorescence Intensity (545-20nm/600-40nm). 3 control compounds
were included on every assay plate, Tamoxifen, Puromycin and TCMDC-135051. Maximum
signal control was obtained from wells with DMSO only and minimum signal control with
Tamoxifen 100uM. These were used to normalise data and give percentage inhibition of
metabolic activity. Experiments were performed N=3 and normalised data was grouped and a
nonlinear regression curve with four parameters was plotted using GraphPad Prism,
generating activity data. […]

human (h)CLK2 = human (h)CLK2 (Homo sapiens, UniProt P49760); test: Selectivity kinase assay against hCLK2; assay type: biochemical; settings: for IC50: errors SD, N ≥ 3
From the text: Given this work aims to target a conserved residue, selectivity must be derived from the reversible ligand rather than the covalent interaction.

[4] = pH 7.4, 1:5 protein to compound, 4 hours room temperature
[5] = 3D7, Pf3D7 parasites, 72 hours, errors SD, N ≥ 3, read-out: EC50 (3D7)
[6] = 3D7, Pf3D7 parasites, 72 hours, errors SD, N ≥ 3, read-out: pEC50 (3D7) (converted)

recombinant PfCLK3, sequence (Q8IIL5 entry or part of it): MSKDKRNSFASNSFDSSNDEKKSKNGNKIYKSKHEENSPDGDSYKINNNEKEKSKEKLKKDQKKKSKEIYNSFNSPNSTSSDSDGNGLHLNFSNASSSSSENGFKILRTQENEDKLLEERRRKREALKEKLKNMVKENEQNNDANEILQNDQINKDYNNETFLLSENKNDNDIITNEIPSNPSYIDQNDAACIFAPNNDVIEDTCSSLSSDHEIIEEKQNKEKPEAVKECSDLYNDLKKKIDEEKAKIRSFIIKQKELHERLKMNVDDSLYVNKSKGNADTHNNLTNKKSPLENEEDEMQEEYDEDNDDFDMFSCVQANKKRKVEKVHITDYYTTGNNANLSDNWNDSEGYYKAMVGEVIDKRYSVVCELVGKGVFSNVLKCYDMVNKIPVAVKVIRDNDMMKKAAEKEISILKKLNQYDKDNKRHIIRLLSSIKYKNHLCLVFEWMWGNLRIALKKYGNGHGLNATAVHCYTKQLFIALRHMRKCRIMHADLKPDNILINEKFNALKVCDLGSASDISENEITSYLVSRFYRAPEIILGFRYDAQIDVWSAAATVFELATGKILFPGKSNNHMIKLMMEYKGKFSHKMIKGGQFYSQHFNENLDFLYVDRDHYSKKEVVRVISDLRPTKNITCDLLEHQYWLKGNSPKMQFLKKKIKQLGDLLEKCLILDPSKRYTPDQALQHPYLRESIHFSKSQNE
human (h)CLK2, sequence (P49760 whole entry): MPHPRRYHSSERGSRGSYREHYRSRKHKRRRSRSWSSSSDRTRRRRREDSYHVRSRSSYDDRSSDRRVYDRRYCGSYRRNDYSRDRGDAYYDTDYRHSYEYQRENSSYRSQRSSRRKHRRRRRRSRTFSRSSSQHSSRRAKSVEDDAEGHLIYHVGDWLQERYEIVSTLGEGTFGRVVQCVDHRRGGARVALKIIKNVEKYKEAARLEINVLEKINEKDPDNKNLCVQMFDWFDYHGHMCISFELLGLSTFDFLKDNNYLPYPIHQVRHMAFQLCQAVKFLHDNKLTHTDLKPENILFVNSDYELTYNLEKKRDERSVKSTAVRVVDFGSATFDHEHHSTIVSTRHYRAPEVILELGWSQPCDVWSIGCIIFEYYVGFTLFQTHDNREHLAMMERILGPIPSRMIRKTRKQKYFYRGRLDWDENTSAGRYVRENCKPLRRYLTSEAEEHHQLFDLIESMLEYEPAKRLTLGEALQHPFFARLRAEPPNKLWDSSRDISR

| Structure (SMILES) | covalent adduct formation with PfCLK3 kinase domain [1] | IC50 (recombinant PfCLK3; IC50 (apparent), Km ATP (5 μM)) | IC50 (recombinant PfCLK3; pIC50, Km ATP (5 μM)) | CC50 at 48 h ([3]; CC50 (HepG2)) | CC50 at 48 h ([3]; pCC50 (HepG2)) | Relative Ratio, assignment apo [1, 4] | further results |
| --- | --- | --- | --- | --- | --- | --- | --- |
| C#Cc1ccc(-c2ccnc3[nH]c(-c4cc(CN(CC)CC)ccc4OC)cc23)cc1C=O [Compound 8] | showed covalent adduct formation; also recorded: formed a covalent adduct with PfCLK3 | 29 ± 3 nM | 28.8 nM | 12300 ± 2530 nM | 12300 nM | – | doubly modified PfCLK3 kinase domain, minor mass abundance ([1]; 44 378 Da species): 20–25%; Relative Ratio, assignment holo (doubly modified) [1, 4]: 25; Relative Ratio, assignment holo (singly modified) [1, 4]: 75; EC50 [2, 5]: 2270 ± 2890 nM; EC50 [2, 6]: 2290 nM; IC50 (human (h)CLK2; read-out: IC50 (hCLK2)): 69 ± 31 nM |
| CCN(CC)Cc1ccc(OC)c(-c2cc3c(-c4ccc(S(=O)(=O)F)cc4)ccnc3[nH]2)c1 [Compound 2] | – | 83 ± 10 nM | 83.2 nM | – | – | 100 | – |
| C=CC(=O)Nc1ccc(-c2c[nH]c3ncc(-c4cc(CN(CC)CC)ccc4OC)cc23)cc1 [Compound 13] | – | 1950 nM | 2000 nM | – | – | 100 | kinase activity in words (recombinant PfCLK3): significantly lower activity than all other analogues |
| C=CC(=O)Nc1ccc(-c2ccnc3[nH]c(-c4cc(CN(CC)CC)ccc4OC)cc23)cc1 [Compound 12] | – | – | – | – | – | 100 | – |
| CCN(CC)Cc1ccc(OC)c(-c2cnc3[nH]cc(-c4ccc(S(=O)(=O)F)cc4)c3c2)c1 [Compound 3] | – | 302 ± 33 nM | 302 nM | – | – | 100 | – |
| CCN(CC)Cc1ccc(OC)c(-c2cc3c(-c4ccc(C=O)c(O)c4)ccnc3[nH]2)c1 [Compound 6] | unable to covalently bind the protein | 155 ± 19 nM | 155 nM | – | – | 100 | – |
| CCN(CC)Cc1ccc(OC)c(-c2cc3c(-c4ccc(C(=O)O)c(C(C)C)c4)ccnc3[nH]2)c1 [Compound 1, TCMDC-135051, reference compound] | – | 17 ± 3 nM | 17.4 nM | 2750 ± 580 nM | 2750 nM | – | EC50 ([2]; 3D7, 72 h, read-out: EC50 (3D7)): 266 ± 11 nM; EC50 ([2]; 3D7, 72 h, read-out: pEC50 (3D7) (converted)): 263 nM; IC50 (human (h)CLK2; IC50 (hCLK2)): 879 ± 325 nM; IC50 (human (h)CLK2; pIC50 (hCLK2)): 891 nM |
| CCN(CC)Cc1ccc(OC)c(-c2cnc3[nH]cc(-c4ccc(C=O)c(O)c4)c3c2)c1 [Compound 7] | unable to covalently bind the protein | 83 ± 42 nM | 83.2 nM | – | – | 100 | – |
| CCN(CC)Cc1ccc(OC)c(-c2cnc3[nH]cc(-c4ccc(O)c(C=O)c4)c3c2)c1 [Compound 5] | showed covalent adduct formation; also recorded: formed a covalent adduct with PfCLK3 | 19 ± 10 nM | 19.5 nM | 4740 ± 3180 nM | 2690 nM | 68 | partial covalent bond formation, modification ([1]; imine adduct): 32–60%; Relative Ratio, assignment holo (singly modified) [1, 4]: 32; EC50 [2, 5]: 3260 ± 1670 nM; EC50 [2, 6]: 3240 nM; IC50 (human (h)CLK2; read-out: pIC50 (hCLK2) (converted)): 11 nM; fold more potent against hCLK2 than parent S1 (human (h)CLK2; relative to S1): 20 fold |
| C=CS(=O)(=O)Nc1ccc(-c2c[nH]c3ncc(-c4cc(CN(CC)CC)ccc4OC)cc23)cc1 [Compound 11] | – | 892 nM | 891 nM | – | – | – | kinase activity in words (recombinant PfCLK3): poorly active, not reaching 100% inhibition at the highest concentration tested |
